Laboratory results reported in ChEMBL document CHEMBL3832061.

How the values were obtained:
[1] = (§1) Pharmacokinetic parameters for Zolmitriptan following oral administration of Zolmitriptan tablets to subjects with different healthy conditions.; assay type: ADME, organism-based; details: human, in vivo
[2] = tested on: Homo sapiens; assay: as §1; assay type: ADME, organism-based; details: in vivo

CL/F [1]: 31.5 mL/min/kg
dose excreted ([1]; read-out: Excretion): 8%
Tmax [2]: 3 hr [middle of 4 runs]
Vd [2]: 7 L/kg
SMILES: CN(C)CCc1c[nH]c2ccc(C[C@H]3COC(=O)N3)cc12 [ZOLMITRIPTAN]
